Source: ChEMBL document CHEMBL5042539, “Structure-Guided Discovery of the Novel Covalent Allosteric Site and Covalent Inhibitors of Fructose-1,6-Bisphosphate Aldolase to Overcome the Azole Resistance of Candidiasis” (J Med Chem, 2022)
In brackets after ≈: the same amount, converted by molar mass. Activity calls are given as the source filed them. The calls are words filed in the database; no cut-off is given here.

What was measured:
Candida albicans [1] = test: Antifungal activity against fluconazole resistant Candida albicans 103 incubated for 48 hrs by CLSI based broth microdilution method; format: functional
Candida albicans [2] = test: Antifungal activity against fluconazole resistant Candida albicans 7781 incubated for 48 hrs by CLSI based broth microdilution method; format: functional
Candida albicans [3] = test: Antifungal activity against Candida albicans SC5314 incubated for 48 hrs by CLSI based broth microdilution method; format: functional
[4] = Inhibition of wild type Candida albicans Fructose-1,6-Bisphosphate Aldolase transfected in Escherichia coli BL21 (DE3) incubated for 3 mins in presence of NADH by spectrophotometric analysis
Candida albicans [5] = test: Antifungal activity against fluconazole resistant Candida albicans 904 incubated for 48 hrs by CLSI based broth microdilution method; format: functional
Candida albicans [6] = test: Inhibition of wild type Candida albicans Fructose-1,6-Bisphosphate Aldolase transfected in Escherichia coli BL21 (DE3) at 50 uM incubated for 3 mins in presence of NADH by spectrophotometric analysis relative to control
[7] = Cytotoxicity against human HaCaT cells; format: toxicity, cell-based
Candida albicans [8] = test: Binding affinity to Candida albicans Fructose-1,6-Bisphosphate Aldolase assessed as ratio of kinact/Ki incubated for 12 to 40 mins by NADH-linked enzymatic assay; settings: time 12-40 min
[9] = Binding affinity to Candida albicans Fructose-1,6-Bisphosphate Aldolase assessed as inhibition constant incubated for 12 to 40 mins by NADH-linked enzymatic assay
Candida albicans [10] = test: Binding affinity to Candida albicans Fructose-1,6-Bisphosphate Aldolase assessed as Kinact incubated for 12 to 40 mins by NADH-linked enzymatic assay; settings: time 12-40 min
Candida albicans [11] = test: Antibiofilm activity against azole resistant Candida albicans 0304103 assessed as inhibition of biofilm formation by XTT assay; format: functional, organism-based; settings: dose 0-64 µg/ml
Candida albicans [12] = test: Antifungal activity against azole-resistant Candida albicans 030410 assessed as inhibition of fungal filamentation by measuring reduction in yeast-hypha transition at 32 ug/ml by microscopic analysis; format: functional, organism-based; settings: dose 32.0 µg/ml

Structure (SMILES) | MIC80 (Candida albicans [1]) [µg/mL] | MIC80 (Candida albicans [2]) [µg/mL] | MIC80 (Candida albicans [3]) [µg/mL] | IC50 [4] [nM] | MIC80 (Candida albicans [5]) [µg/mL] | other results
CCCCNC(=O)Nc1ccc(-n2[se]c3ccccc3c2=O)cc1 | 8 (≈ 20.6 µM) | 8 (≈ 20.6 µM) | 8 (≈ 20.6 µM) | 93 | 8 (≈ 20.6 µM) | –
O=C(NC1CCCCC1)n1sc2ccccc2c1=O | – | – | – | 1110 | – | –
CCN(CC)C(=S)SSC(=S)N(CC)CC | – | – | – | – | – | inhibition (Candida albicans [6]): 83%
O=c1c2ccccc2[se]n1-c1nccs1 | 8 (≈ 28.4 µM) | 8 (≈ 28.4 µM) | 4 (≈ 14.2 µM) | 113 | 4 (≈ 14.2 µM) | –
CC(=O)Nc1ccc(S(=O)(=O)n2sc3ccccc3c2=O)cc1 | – | – | – | > 50000 | – | inhibition (Candida albicans [6]): < 50%
CC(C)c1ccc(-n2[se]c3ccccc3c2=O)cc1 | 2 (≈ 6.32 µM) | 2 (≈ 6.32 µM) | 4 (≈ 12.6 µM) | 110 | 4 (≈ 12.6 µM) | IC50 [7]: > 32 µM
O=c1c2ccccc2[se]n1-c1ccc(-n2cncn2)cc1 | 8 (≈ 23.4 µM) | 8 (≈ 23.4 µM) | 8 (≈ 23.4 µM) | 38 | 4 (≈ 11.7 µM) | Ratio (Candida albicans [8]): 10.4 M⁻¹ s⁻¹; IC50 [7]: > 32 µM; Ki [9]: 486 nM; Kinact (Candida albicans [10]): 0.00506 s⁻¹
CCCCCCNC(=O)n1cc(F)c(=O)[nH]c1=O | – | – | – | – | – | inhibition (Candida albicans [6]): 62.2%
O=c1c2ccccc2[se]n1-c1ccc(-c2ccccc2)cc1 | 64 (≈ 183 µM) | 64 (≈ 183 µM) | 32 (≈ 91.4 µM) | 60 | 64 (≈ 183 µM) | –
O=c1[nH]sc2ccccc12 | – | – | – | > 5000 | – | inhibition (Candida albicans [6]): < 50%
O=c1c2ccccc2[se]n1Cc1ccccc1 | 4 (≈ 13.9 µM) | 4 (≈ 13.9 µM) | 2 (≈ 6.94 µM) | 118 | 4 (≈ 13.9 µM) | –
Cc1ccc(-n2[se]c3ccccc3c2=O)cc1 | 2 (≈ 6.94 µM) | 2 (≈ 6.94 µM) | 4 (≈ 13.9 µM) | 13.3 | 4 (≈ 13.9 µM) | IC50 [7]: > 32 µM
O=c1c2ccccc2[se]n1CCc1ccccc1 | 4 (≈ 13.2 µM) | 2 (≈ 6.62 µM) | 4 (≈ 13.2 µM) | 22.5 | 4 (≈ 13.2 µM) | –
CCCCc1ccc(-n2[se]c3ccccc3c2=O)cc1 | 4 (≈ 12.1 µM) | 4 (≈ 12.1 µM) | 8 (≈ 24.2 µM) | 100 | 8 (≈ 24.2 µM) | –
O=c1c2ccccc2sn1S(=O)(=O)c1ccccc1 | – | – | – | > 50000 | – | inhibition (Candida albicans [6]): < 50%
O=C(c1ccccc1)c1ccc(-n2[se]c3ccccc3c2=O)cc1 | 4 (≈ 10.6 µM) | 4 (≈ 10.6 µM) | 4 (≈ 10.6 µM) | 31 | 4 (≈ 10.6 µM) | Activity (Candida albicans [11]): Dose-Dependent Effect; Activity (Candida albicans [12]): Active
O=c1c2ccccc2[se]n1-c1ccc(Cl)cc1Cl | 2 (≈ 5.83 µM) | 2 (≈ 5.83 µM) | 4 (≈ 11.7 µM) | 76 | 4 (≈ 11.7 µM) | IC50 [7]: > 32 µM
O=c1c2ccccc2[se]n1-c1ccc(-n2ccnc2)cc1 | 4 (≈ 11.8 µM) | 4 (≈ 11.8 µM) | 4 (≈ 11.8 µM) | 45.8 | 4 (≈ 11.8 µM) | Activity (Candida albicans [11]): Dose-Dependent Effect; Activity (Candida albicans [12]): Active
O=c1c2ccccc2sn1-c1ccccc1 | – | – | – | 242 | – | IC50 [7]: > 32 µM
C[C@@H]1O[C@@H]1P(=O)(O)O | – | – | – | – | – | inhibition (Candida albicans [6]): 0.32%
O=c1c2ccccc2[se]n1-c1ccc(F)cc1F | 4 (≈ 12.9 µM) | 2 (≈ 6.45 µM) | 4 (≈ 12.9 µM) | 84 | 4 (≈ 12.9 µM) | IC50 [7]: > 32 µM
O=C(Cc1ccccc1)n1sc2ccccc2c1=O | – | – | – | 488 | – | –

Structure (SMILES) | MIC80 (Candida albicans [1]) [µg/mL] | MIC80 (Candida albicans [2]) [µg/mL] | MIC80 (Candida albicans [3]) [µg/mL] | IC50 [4] [nM] | MIC80 (Candida albicans [5]) [µg/mL] | other results
O=c1c2ccccc2[se]n1Nc1ccccc1 | – | – | – | 96.3 | – | –
NC(=O)c1ccc(-n2[se]c3ccccc3c2=O)cc1 | 64 (≈ 202 µM) | 64 (≈ 202 µM) | 64 (≈ 202 µM) | 85 | 64 (≈ 202 µM) | –
O=c1c2ccccc2[se]n1-c1ccccn1 | 4 (≈ 14.5 µM) | 4 (≈ 14.5 µM) | 4 (≈ 14.5 µM) | 72.7 | 2 (≈ 7.27 µM) | –
O=c1c2ccccc2[se]n1-c1cccc(C(F)(F)F)c1 | 4 (≈ 11.7 µM) | 4 (≈ 11.7 µM) | 4 (≈ 11.7 µM) | 84 | 2 (≈ 5.84 µM) | IC50 [7]: > 32 µM
Cn1sc(=O)n(Cc2ccccc2)c1=O | – | – | – | – | – | inhibition (Candida albicans [6]): 53.7%
O=C(NCc1ccccc1)n1sc2ccccc2c1=O | – | – | – | 370 | – | –
COC(=O)/C=C/C(=O)OC | – | – | – | – | – | inhibition (Candida albicans [6]): 0.58%
O=C(O)CCCCC1CCSS1 (stereo unspecified) | – | – | – | – | – | inhibition (Candida albicans [6]): 80%
O=C(NCc1ccccc1)n1[se]c2ccccc2c1=O | 8 (≈ 24.2 µM) | 8 (≈ 24.2 µM) | 16 (≈ 48.3 µM) | 97.3 | 16 (≈ 48.3 µM) | –
O=C(O)c1ccc(-n2[se]c3ccccc3c2=O)cc1 | 64 (≈ 201 µM) | 64 (≈ 201 µM) | 64 (≈ 201 µM) | 44.5 | 64 (≈ 201 µM) | –
CC(C)C[C@H](NC(=O)[C@H](Cc1ccccc1)NC(=O)c1cnccn1)B(O)O | – | – | – | – | – | inhibition (Candida albicans [6]): -0.52%
N#Cc1ccc(-n2[se]c3ccccc3c2=O)cc1 | 16 (≈ 53.5 µM) | 8 (≈ 26.7 µM) | 8 (≈ 26.7 µM) | 38.9 | 16 (≈ 53.5 µM) | –
O=C(C(=O)n1sc2ccccc2c1=O)c1ccccc1 | – | – | – | 15700 | – | –
COC(=O)c1ccc(-n2[se]c3ccccc3c2=O)cc1 | 4 (≈ 12 µM) | 8 (≈ 24.1 µM) | 8 (≈ 24.1 µM) | 120 | 8 (≈ 24.1 µM) | –
CC(=O)c1ccc(-n2[se]c3ccccc3c2=O)cc1 | 8 (≈ 25.3 µM) | 8 (≈ 25.3 µM) | 16 (≈ 50.6 µM) | 17.3 | 16 (≈ 50.6 µM) | –
Nc1ccc(-n2[se]c3ccccc3c2=O)cc1 | 8 (≈ 27.7 µM) | 8 (≈ 27.7 µM) | 8 (≈ 27.7 µM) | 82.3 | 8 (≈ 27.7 µM) | Ratio (Candida albicans [8]): 3560 M⁻¹ s⁻¹; IC50 [7]: > 32 µM; Ki [9]: 559 nM; Kinact (Candida albicans [10]): 0.00199 s⁻¹
CCc1ccc(-n2[se]c3ccccc3c2=O)cc1 | 1 (≈ 3.31 µM) | 2 (≈ 6.62 µM) | 4 (≈ 13.2 µM) | 92 | 4 (≈ 13.2 µM) | Activity (Candida albicans [11]): Dose-Dependent Effect; IC50 [7]: > 32 µM; Activity (Candida albicans [12]): Active
O=c1c2ccccc2[se]n1-c1ccc(N2CCOCC2)cc1 | – | – | – | 130 | – | –
O=c1c2ccccc2[se]n1-c1ccc(C(F)(F)F)cc1 | 4 (≈ 11.7 µM) | 4 (≈ 11.7 µM) | 4 (≈ 11.7 µM) | 13 | 8 (≈ 23.4 µM) | Ratio (Candida albicans [8]): 15.9 M⁻¹ s⁻¹; IC50 [7]: > 32 µM; Ki [9]: 58 nM; Kinact (Candida albicans [10]): 0.00092 s⁻¹
COc1ccc(-n2[se]c3ccccc3c2=O)cc1 | 4 (≈ 13.1 µM) | 4 (≈ 13.1 µM) | 4 (≈ 13.1 µM) | 91 | 4 (≈ 13.1 µM) | –
OC(Cn1cncn1)(Cn1cncn1)c1ccc(F)cc1F [FLUCONAZOLE] | > 64 | > 64 | 0.25 (≈ 0.816 µM) | – | > 64 | Activity (Candida albicans [11]): Active; Activity (Candida albicans [12]): inactive
